Here are results for 8 molecules from patent US10674724B2, “Method of activating immune response in plants” (priority 2012, dated 2020).

The target of data set [1] is T1, NPR1-dependent oligomer on the PR-1 promoter (Arabidopsis thaliana, UniProt P93002).
T1 construct: in wild-type plants (WT), such an oligomer forms on the PR-1 promoter; endogenous in cells; host or cells: wild-type Arabidopsis plants
T1 sequence (P93002 1-593): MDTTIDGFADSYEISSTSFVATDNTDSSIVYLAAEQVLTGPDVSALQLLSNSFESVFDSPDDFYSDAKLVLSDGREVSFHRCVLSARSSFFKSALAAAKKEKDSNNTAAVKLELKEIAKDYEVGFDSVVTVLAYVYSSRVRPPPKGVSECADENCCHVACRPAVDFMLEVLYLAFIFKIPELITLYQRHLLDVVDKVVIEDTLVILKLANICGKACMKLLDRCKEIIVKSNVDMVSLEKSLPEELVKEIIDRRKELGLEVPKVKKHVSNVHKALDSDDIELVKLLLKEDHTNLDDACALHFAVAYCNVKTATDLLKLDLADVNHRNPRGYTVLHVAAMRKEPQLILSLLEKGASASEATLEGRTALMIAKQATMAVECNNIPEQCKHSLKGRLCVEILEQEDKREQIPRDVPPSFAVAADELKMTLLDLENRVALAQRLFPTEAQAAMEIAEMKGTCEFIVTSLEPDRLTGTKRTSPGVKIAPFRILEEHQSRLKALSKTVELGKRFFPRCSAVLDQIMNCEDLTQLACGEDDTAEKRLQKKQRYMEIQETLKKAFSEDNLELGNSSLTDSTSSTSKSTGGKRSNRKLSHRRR
In words: Cross-linked-chromatin chromatography (3C Method). To be noted: wild-type plants, region −734 to −833. Type of data set: in vivo. The procedure: Plant treatment, cross-linking, sonication, and cross-linking reversal were performed as for chromatin-immunoprecipitation (Rochon et al., 2006). Chromatography was as described under “Chromatography”. qPCR was performed with PR1 and Ubiquitin5 primers. PR-1 values were normalized against Ubiquitin5 (see Table 1 for primer sequence).
Although there are no decisive methods to test the stoichiometry of a protein in vivo, it was determined whether or not NPR1-dependent oligomers form on DNA in vivo by combining chromatin cross-linking, gel filtration, and qPCR (the 3C Method). The rationale was that, if an NPR1-dependent oligomer forms on the PR1 promoter in vivo, the presence of PR1 should be detectable by qPCR in the void fraction of an S300 after the chromatin had been cross-linked and sheared by sonication.

Data set [2] concerns the target T2, NPR1 (Arabidopsis thaliana, UniProt P93002).
T2 construct: made in house; host or cells: E. coli
In words: homologous and heterologous competitive binding curves for the [14C]SA-NPR1 interaction (equilibrium dialysis). To be noted: 0.08 μM NPR1, 0.07 μM [14C]SA. The procedure:
Given the dissociation reaction:
For the saturation binding curves (FIGS. 1C and 7D/E), 0.8 μM of NPR1 protein was incubated with a final concentration of 0.007-14 μM [^14C]SA. The data was analyzed by non-linear regression using GraphPad PRISM 4 and fitted to a one-site-binding rectangular hyperbola. For homologous and heterologous competitive binding curves (FIGS. 1E/F and 7F/G), 0.08 μM of NPR1 protein was incubated with a final concentration of 0.07 μM [^14C]SA.
For orientation: In equilibrium dialysis free small molecules cross a membrane that holds back macromolecules.

For data set [3], the target named is T2, NPR1. In words: Sephacryl S300 gel filtration of Strep-tagged NPR1. Type of data set: biochemical. To be noted: 1 mM SA, catechol, 4-hydroxy benzoic acid or methyl-salicylate, 30 min; DTT concentration not given. The protocol: Strep-tagged purified proteins in a final volume of 2 ml were subjected to gel filtration analysis on the Sephacryl S100 HR or Sephacryl S300 HR packed in 50 cm long HR 16 columns (GE Health) and equilibrated with S300 chromatography buffer (50 mM HEPES, pH 7.4, 250 mM NaCl. Elutions, in 0.5 ml fractions, were performed in the same buffer at a flow rate of 0.8 ml/min. Where indicated, proteins were incubated with 1 mM SA, 1 mM catechol, 1 mM 4-hydroxy benzoic acid, or 1 mM methyl-salicylate at room temperature for 30 min prior to chromatography as described above with the exception that the chromatography buffer was supplemented with 1 mM SA, 1 mM catechol, 1 mM 4-hydroxy benzoic acid, or 1 mM methyl-salicylate, respectively. In the case of the EDTA treatment, NPR1 was stripped of its metal by a 50 mM EDTA treatment of 30 min, followed by an incubation of 30 min with 1 mM SA prior to gel filtration. In this case, the chromatography buffer was supplemented with 1 mM SA.
Background: SEC sorts molecules by how far they enter the pores of the column.

A short description of another data set: solubility in water. Type of data set: physicochemical.
The next data set concerns PR-1 expression. As to the kind of experiment: PR-1 expression by quantitative RT-PCR after chemical treatment. The data set is classed as in vivo, Arabidopsis. The note with it: 12 hrs. The protocol:
Total RNA was extracted from leaves using the Rneasy plant mini kit (Qiagen) according to the supplier's instructions. After treatment with Dnase I (Invitrogen), first strand cDNA synthesis was generated using SuperScript II reverse transcriptase (Invitrogen), and the (dT)17VN oligo in the presence of 0.4 U Rnasin (Fisher Scientific). The newly-synthesized cDNA was diluted 1/200 to reflect a concentration of 10 ng μL^−1 input total RNA. RT-PCR was performed on a CFX96 spectrofluorometric thermal cycler (BioRad). Firefly luciferase values were normalized against Renilla Luciferase and PR-1 values against Ubiquitin5 (see Table 1 for primer sequence). […] All treatments were for 12 hrs. Values consist of n=3 biological replicates and represent averages±1 SD.

[4] abbreviates: 300 μM, fold-induction over water.

With `O=C(O)c1ccc(O)cc1` [4-hydroxy benzoic acid], the “NPR1-dependent oligomer on the PR-1 promoter (void fraction, qPCR)” value in data set [1] was “did not reduce the amount of NPR1-dependent oligomer”. The “affinity for NPR1 compared with SA (competitive binding)” value (“affinity for NPR1 compared with SA” below) on NPR1 [2] is “do not interact with NPR1 with the same affinity as SA”. For the same molecule, on NPR1 [3], the “conformation of NPR1 (S300 elution profile)” value (from here on “conformation of NPR1”) was “do not alter the conformation of NPR1”.
Regarding `O=C(O)c1cc(Cl)cc(Cl)c1O` [3,5-dichloro SA], the solubility in water entry in “solubility in water” is “low solubility in water”.
`Oc1ccccc1O` [catechol]: the “affinity for NPR1 compared with SA” value on NPR1 [2] is “do not interact with NPR1 with the same affinity as SA”. Also, the “conformation of NPR1” value on NPR1 [3] is given as “do not alter the conformation of NPR1”.
Turning to `O=C(O)c1ccc(Cl)cc1O` [4-chloro SA], the solubility in water result in “solubility in water” is “low solubility in water”.
Consider `O=C(O)c1cccc(O)c1` [3-hydroxy benzoic acid], for which the “affinity for NPR1 compared with SA” value on NPR1 [2] is listed as “do not interact with NPR1 with the same affinity as SA”.
Take `CSC(=O)c1cccc2nnsc12` [BTH, benzo(1,2,3)thiadiazole-7-carbothioic acid S-methyl ester]: the “NPR1-dependent oligomer on the PR-1 promoter (void fraction, qPCR)” value in data set [1] was “reduced the amount of NPR1-dependent oligomer on the PR-1 promoter”. In addition, the PR-1 expression entry in the data set with PR-1 expression (BTH at 100 μM) is listed as “capacity to induce PR-1 expression”. Moreover, the solubility in water result in the data set “solubility in water” is on record as “low solubility in water”.
Consider `O=C(O)c1cc(Cl)nc(Cl)c1` [INA, 2,6-dichloroisonicotinic acid], for which the “NPR1-dependent oligomer on the PR-1 promoter (void fraction, qPCR)” value in data set [1] is given as “did not affect the NPR1-dependent oligomer on the PR-1 promoter”. Further, the PR-1 expression entry in the data set with PR-1 expression (300 μM) is “poor inducer of PR-1 expression”. In addition, in the data set on PR-1 expression (setting [4]), the “PR-1 induction, times less effective than an identical concentration of 4-chloro SA” value amounted to 10 times and the “PR-1 induction, times less effective than an identical concentration of SA” value stood at 42 times. Besides, in the data set “solubility in water”, the solubility in water entry is recorded as “low solubility in water”.
As for `O[C@@H](CS)[C@@H](O)CS` [DTT], the “conformation of NPR1” value on NPR1 [3] is reported as “did not induce a redistribution of the protein to the included volume”.
